Measured values as given in patent publication US5624928A, “Method of synthesizing an endonuclease inhibitor and analogs thereof” (priority 1994, dated 1997).

Each molecule was assayed against transcription apparatus of the influenza virus (Influenza A virus, UniProt P03433) (assay: in vitro influenza transcription assay).
Type: biochemical

SMILES | IC50 | IC50 in flu transcription assay (compared with the natural product)
CC(C)/C=C1\N=C(CC(C)C)C(=O)N(O)C1=O [Compound I, 1-(N-hydroxy)-3-(2-methyl-propyl)-5-(2-methyl-Z-prop-1-enyl)-2,6-diketopiperazine-3,4-ene] | 5 µM | same IC50
CC(C)CC1=N/C(=C\c2ccccc2)C(=O)N(O)C1=O [Example 8, 1-(N-hydroxy)-3-(2-methyl-propyl)-5-(Z-benz-1-enyl)-2.6-diketopiperazine-3,4-ene] | 4.8 µM | –
CC(C)CC1=N/C(=C\c2ccc(F)cc2)C(=O)N(O)C1=O [Example 9, 1-(N-hydroxy)-3-(2-methyl-propyl)-5-(Z-p-fluorobenz-1-enyl)-2.6-diketopiperazine-3.4-ene] | 0.9 µM | –
CC(C)CC1=N/C(=C\c2ccccc2F)C(=O)N(O)C1=O [Example 10, 1-(N-hydroxy)-3-(2-methyl-propyl)-5-(Z-o-fluorobenz-1-enyl)-2,6-diketopiperazine-3,4-ene] | 7.3 µM | –
CC(C)CC1=N/C(=C\c2cccc(F)c2)C(=O)N(O)C1=O [Example 11, 1-(N-hydroxy)-3-(2-methyl-propyl)-5-(Z-m-fluorobenz-1-enyl)-2,6-diketopiperazine-3,4-ene] | 1.5 µM | –
COc1ccc(/C=C2\N=C(CC(C)C)C(=O)N(O)C2=O)cc1 [Example 12, 1-(N-hydroxy)-3-(2-methyl-propyl)-5-(Z-p-methoxybenz-1-enyl)-2,6-diketopiperazine-3,4-ene] | 0.8 µM | –
COc1ccc(/C=C2\N=C(Cc3ccccc3)C(=O)N(O)C2=O)cc1 [Example 14, 1-(N-hydroxy)-3-(benzyl)-5-(Z-p-methoxybenz-1-enyl)-2,6-diketopiperazine-3,4-ene] | 2.8 µM | –
O=C1C(Cc2ccccc2)=N/C(=C\c2ccc(F)cc2)C(=O)N1O [Example 15A, 1-(N-hydroxy)-3-(benzyl)-5-(Z-p-fluoro-benz-1-enyl)-2,6-diketopiperazine-3,4-ene] | 3.5 µM | –
O=C1C(Cc2ccc(F)cc2)=N/C(=C\c2ccccc2)C(=O)N1O [Example 15B] | 6.5 µM | –
CC(C)CC1NC(Cc2ccc(F)cc2)C(=O)N(O)C1=O (centres unmarked) [Example 16] | 85 µM | –
